Assays:
[1] = test system: reconstituted human epidermis Epi-200 EpiDerm™; experiment: Cytotoxicity by release of lactate dehydrogenase (LDH) in the culture medium; settings: 18-hour treatment; Tukey Kramer Multiple Comparisons Test
Experimental: Tissue used: EPI-200-SIT EpiDerm™
Culture medium: EPI-100-MM-HCF-60
(§1) Incubation conditions: +37° C. in a 5% CO2 atmosphere
(§2) Treatment with the sample: • continuous contact and incubation for 18 hours (single) • continuous contact and incubation for 7 days (double)
(§3) Application was carried out by applying about 1 cm^2 of sample (i.e. of the sheet according to the invention obtained as per the example given above) per insert.
(§4) Controls Performed for the First Evaluation (18 hours): • Negative control after 18 hours: inserts not treated • Positive control: inserts treated with 0.5% SDS (Sodium Dodecylsulphate) in sterile water during 18 hours of incubation;
(§5) Controls Performed for the 7-Day Evaluation: • Negative control: inserts not treated with the sample and kept for 7 days in the same incubation conditions as those treated with the sample.
Evaluation of the Cytotoxicity by Means of Measurement of the Release of the Lactate Dehydrogenase (LDH) in the Culture Medium:
Evaluation in the culture medium obtained after the incubation period of the sample with the epidermis model. The culture medium is incubated with a specific reagent so as to allow quantitive determination of the lactate dehydrogenase at 490 nm.

[2] = test system: reconstituted human epidermis Epi-200 EpiDerm™; experiment: Cellular vitality by MTT assay on reconstituted epidermis (EpiDerm Skin Irritation Test, cumulative irritation); settings: 18-hour treatment
Experimental: The assay in question was based on the In vitro Epiderm™ Skin Irritation Test (EPI-200-SIT) developed by the MatTek Corporation, which uses the model of reconstituted human epidermis Epi-200 EpiDerm™.
The assay consists in topical application of the material under testing on the reconstituted epidermis for contact times equal to or greater than 18 hours. The irritation potential is determined by means of evaluation of the cellular vitality using the MTT assay.
Tissue used: EPI-200-SIT EpiDerm™
Culture medium: EPI-100-MM-HCF-60
as §1, §2, §4, §5
MTT assay: colorimetric determination of the vitality of the keratinocytes of the insert based on the reduction of the yellow tetrazolium salts (MTT) to blue formazan by mitochondrial dehydrogenases.
continuous stimulation (overnight contact and incubation)

[3] = test system: reconstituted human epidermis Epi-200 EpiDerm™; experiment: Release of IL-1α in the culture medium (ELISA); settings: 18-hour treatment; Tukey Kramer Multiple Comparisons Test
Text: Further information for better defining the irritation potential was obtained from subsequent measurement of the following parameters: • evaluation of the release, in the culture medium, of the lactate dehydrogenase (LDH), a cytoplasmic enzyme, release of which indicates loss of integrity of the cellular membrane; • evaluation of the release, in the culture medium, of pro-inflammatory cytokine by means of ELISA (Enzyme Linked Immunosorbent Assay).
Tissue used: EPI-200-SIT EpiDerm™
Culture medium: EPI-100-MM-HCF-60
as §1, §2, §3
Controls Performed for the First Evaluation (18 hours): • Negative control after 18 hours: inserts not treated • Positive control: inserts treated with 0.5% SDS (Sodium Dodecylsulphate) in sterile water during 18 hours of incubation; […]
Evaluation in the culture medium obtained after the period of incubation of the sample with EPI-200. The release is measured by means of specific ELISA.

CCCCCCCCCCCCOS(=O)(=O)[O-].[Na+] [Positive control, Sodium Dodecylsulphate]
Statistical comparison of LDH release in relation to the negative control [1]: *** (*** p < 0.001 extremely significant variation)
Average value of OD ± SD ([2]; continuous contact): 0.185 ± 0.004
Average value of the % vitality ([2]; relative to negative control = 100%): 8.40 ± 0.17%
Statistical comparison of IL-1α release in relation to the negative control [3]: *** (*** p < 0.001 extremely significant variation)

— patent US20160089471A1, “SHEET FOR CUTANEOUS APPLICATION CONTAINING VITAMIN E OR AN ESTER THEREOF” (BIO.LO.GA. S.R.L., priority 2013, published 2016)
